System: C2C12 cells
Test: IGF-1 versus PPF1 dose-response on glucose utilization, C2C12 cells in 2% horse serum
Assay type: cell-based
Conditions: treatment day 5, read day 6
Procedure: FIG. 16A and FIG. 16B report the effects of insulin-like growth factor-1 (IGF-1) on glucose utilization in C2C12 cells treated in 2% horse serum. Cells were plated in DMEM plus 4.5 g/L of glucose and 10% fetal bovine serum (FBS) at Day −2 (d−2). At Day 0 (d0) media was refreshed with DMEM plus 1 g/L glucose and 2% horse serum. At Day 5 (d5) various treatments were added with glucose utilization determined at Day 6 (d6). […] Recombinant human IGF1 was purchased from R&D Systems (Cat. 291-G1). […] IGF-1 is known to have an impact on metabolism of myotubes, and its presence in PPF1 has been calculated as approximately 14.88 ng/mL. […] Thus, other factors must necessarily be involved in the effects of PPF1.

EC50, glucose utilization: 0.01743 µg/mL
Substance: recombinant human IGF-1: Recombinant human IGF1 purchased from R&D Systems (Cat. 291-G1)

Reference: US12059453B2, “Blood plasma fractions for use in muscle regeneration” (Alkahest, Inc., priority 2019, dated 2024)
